Measured values from ChEMBL document CHEMBL1201862, “PubChem BioAssay data set” (2004).
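Interpolation was linear, between the two tested concentrations surrounding the appropriate level; five concentrations were tested over 48 hours in 96-well plates. At the GI50, growth is halved.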 The source made the active and inactive calls. No stated cut-off is given here; in the data, active = GI50 up to about 1.1 µM and inactive = higher.

Legend:
Experiment in all cases: inhibition of tumour cell growth, NCI panel, 48 h
[1] = tested on: SK-MEL-28
[2] = tested on: M14
[3] = tested on: KM-20L2
[4] = tested on: HCT-116
[5] = tested on: HL-60
[6] = tested on: SK-MEL-5
[7] = tested on: NCI-H226
[8] = tested on: SR
[9] = tested on: HCC 2998
[10] = tested on: 786-0
[11] = tested on: CAKI-1
[12] = tested on: EKVX
[13] = tested on: MOLT-4
[14] = tested on: SK-MEL-2
[15] = tested on: UACC-62
[16] = tested on: RPMI-8226
[17] = tested on: A549
[18] = tested on: OVCAR-8

Measured: GI50

COc1cccc(NC(=O)C(C)(C)C)c1C=O
inactive: [1] > 100 µM | [2] 70.8 µM | [3] 43.8 µM | [4] 35.6 µM | [5] 26.7 µM | [6] 88.1 µM | [7] 33.4 µM | [8] 26.5 µM | [9] 92 µM | [10] > 100 µM | [11] 56.6 µM | [12] 35.3 µM | [13] 31 µM | [14] 73.6 µM | [15] 74.3 µM | [16] 19.4 µM | [17] 71.1 µM | [18] 57.9 µM

O=C(CC(C(=O)c1ccsc1)c1cccs1)c1cccs1 (centres undefined)
inactive: [1] > 100 µM | [2] 59.3 µM | [3] > 100 µM | [4] 43.4 µM | [5] 56.8 µM | [6] 22.9 µM | [7] > 100 µM | [8] 29.6 µM | [9] > 100 µM | [10] > 100 µM | [12] 42.5 µM | [13] 33 µM | [14] > 100 µM | [15] 75.7 µM | [16] 33.1 µM | [17] 42.6 µM | [18] 83.8 µM

CC1CCC2(OC1)OC1CC3C4CCC5CC(O)CCC5(C)C4CC(=O)OC3(C)C1C2C (centres undefined)
inactive: [1] > 100 µM | [2] > 100 µM | [3] > 100 µM | [4] > 100 µM | [5] > 100 µM | [6] > 100 µM | [8] > 100 µM | [9] > 100 µM | [10] > 100 µM | [11] > 100 µM | [12] > 100 µM | [13] > 100 µM | [14] > 100 µM | [15] > 100 µM | [16] > 100 µM | [17] > 100 µM | [18] > 100 µM

O=C(/C=C1\Nc2ccccc2C(=O)N1c1ccccc1Cl)c1ccccc1
inactive: [1] > 100 µM | [2] > 100 µM | [3] > 100 µM | [4] 36.5 µM | [5] 47 µM | [6] > 100 µM | [7] > 100 µM | [8] > 100 µM | [9] > 100 µM | [10] > 100 µM | [11] > 100 µM | [12] > 100 µM | [13] 76.4 µM | [14] > 100 µM | [15] > 100 µM | [17] 87.5 µM | [18] > 100 µM
